{"source": "patent US9169190B2", "about": "“Methods for making retinoids and uses thereof” (The UAB Research Foundation, priority 2004, dated 2015)", "origin": "cited, not measured here", "key": {"[1]": {"tested_on": "MNU-induced mammary cancers", "settings": "added to the diet of rats"}, "mammary cancers": {"tested_on": "mammary cancers", "settings": "compared with 9cRA"}, "[2]": {"tested_on": "juvenile myelomonocytic leukemia (JMML)", "settings": "children with JMML"}, "[3]": {"tested_on": "acute promyelocytic leukemia (APL)", "settings": "patients with APL"}}}
{"smiles": "CC1=C(/C=C/C(C)=C\\C=C\\C(C)=C\\C(=O)O)C(C)(C)CCC1", "note": "[9cRA]", "values": [{"measurement": "reduction of the number of MNU-induced mammary cancers", "setting": "[1]", "result": 92, "unit": "%"}]}
{"smiles": "CC(=C/C=C/C(C)=C/C(=O)O)/C=C1\\CCCc2ccccc21", "note": "[9cUAB30]", "values": [{"measurement": "chemopreventive efficacy of mammary cancers relative to 9cRA", "setting": "mammary cancers", "result": "comparable"}, {"measurement": "toxicity relative to 9cRA", "setting": "mammary cancers", "result": "less toxic"}]}
{"smiles": "CC1=C(/C=C/C(C)=C/C=C/C(C)=C\\C(=O)O)C(C)(C)CCC1", "note": "[(13Z)-RA]", "values": [{"measurement": "children in whom excessive myeloproliferation is effectively controlled", "setting": "[2]", "result": "up to 50%"}]}
{"smiles": "CC1=C(/C=C/C(C)=C/C=C/C(C)=C/C(=O)O)C(C)(C)CCC1", "note": "[(all-E)-RA, All-trans-retinoic acid]", "values": [{"measurement": "complete remission rate", "setting": "[3]", "result": 90, "unit": "%"}]}
